In patent US5079257A, “Indoloquinone compounds” (priority 1986, dated 1992):
Converted amounts (≈) assume the structure as drawn. Like-named read-outs stand apart in the source and are kept apart here.

Tests used:
[1] = in vitro and in mice; cited from earlier work
[2] = system: T 24 cells; bladder carcinoma; experiment: In vitro panel of human tumour lines (TNO): T 24; assay type: cell-based; settings: about 72 hours; note: key: -: no inhibition of cell growth; +: total cell-kill
Outline: (§1)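 Cells (5×10^4/ml, Dulbecco's medium + 10% FCS) grafted 48 h, then continuously exposed to compound (Hanks'/ethanol, final ethanol <1%) for about 72 h at 37°C, 10% CO2. Crystal violet fixation/staining; inhibiting concentration estimated qualitatively over increasing doses.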

WiDr cells; colon tumour = experiment: In vitro panel of human tumour lines (TNO): WiDr; assay type: cell-based; settings: about 72 hours; note: key: -: no inhibition of cell growth; +: total cell-kill
Outline: (§2)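 Cells in Dulbecco's medium with 10% foetal calf serum were seeded 48 h, then exposed continuously to increasing compound concentrations (final ethanol <1%) for about 72 h at 37° in 10% CO2. Crystal violet staining after fixation; inhibiting concentration estimated qualitatively.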

L1210 cells = experiment: L1210 activity (bioliquid assay), cytotoxicity; assay type: cell-based; settings: Mus musculus, L1210, 48 h
Outline: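 Suspension culture in RPMI with 15% FCS and 2-mercaptoethanol (60 μmol). Continuous compound exposure for 48 hours at 37° C under 5% CO2 in humidified air. Cell numbers then counted on an electronic microcell counter.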

IgR37 cells melanoma = experiment: In vitro panel of human tumour lines (TNO): IgR-37; assay type: cell-based; settings: about 72 hours; note: key: -: no inhibition of cell growth; +: total cell-kill
Outline: as §1

MCF7 breast cancer cells = experiment: In vitro panel of human tumour lines (TNO): MCF-7; assay type: cell-based; settings: about 72 hours; note: key: -: no inhibition of cell growth; +: total cell-kill
Outline: as §2

[3] = Cytotoxic activity (test not specified); assay type: cell-based
[4] = Half-wave reduction potentials / polarography (University of Utrecht); assay type: physicochemical; settings: Table IA; only the first (quinone) reduction potential
Source text: *The halve wave reduction potentials (E1/2) have been determined at the
Pharmaceutical Laboratory of University of Utrecht. Only the first
(quinone) reduction potential has been given.
Additional evidence for the occurrence of a bioreductive activation mechanism during the cytotoxic action of indoloquinones (II) was obtained via electrochemical studies, which have been carried out at the Pharmaceutical Laboratory of the University of Utrecht. […]

[5] = system: A 204 cells; rhabdomyosarcoma; experiment: In vitro panel of human tumour lines (TNO): A 204; assay type: cell-based; settings: about 72 hours; note: key: -: no inhibition of cell growth; +: total cell-kill
Outline: as §1

[6] = system: R-1 cells (Rhabdomyosarcoma Cells); experiment: R-1 activity (bioliquid assay), cytotoxicity; assay type: cell-based; settings: Rhabdomyosarcoma cell
Outline: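 Rhabdomyosarcoma R-1 cells (~10^6 per dish) in Dulbecco's medium with 10% FCS were exposed to drug solution, which was then replaced by fresh medium. Cells were trypsinized after 48 hours and counted electronically.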

DNA = settings: cited from earlier work
L1210 [7] = experiment: In vivo L1210 experiments (TNO Rijswijk); design: species or system mice; settings: Mus musculus, L1210, read-out: % T/C
Description: The in vivo L1210 experiments were carried out in male Balb/c X DBA.2 Fl hybrid mice at TNO, Rijswijk.
In these experiments also, the drugs were administered IP as suspensions in carboxymethyl cellulose […] as a single dose at the first day.

Ovarian (MRI-H-207) line = assay type: in vivo, human; settings: 5 mg/kg, days of treatment 0.7
Source text: The xenograft experiments have been carried by Dr. H. H. Fiebig of the University of Freiburg [Lung-NSCLC (LXGF) line, Renal line, Breast line; See: H. H. Fiebig et al., Behring Inst. Mitt., 74 343] and by Dr. E. Boven of the Free University Hospital Amsterdam [Ovarian (MRI-H-207) line; See: E. Boven et al., Cancer Res., 45, 86 (1985) and E. Boven et al., Eur. J. Clin. Oncol., 21, 1253 (1985)].
Mice: C57B1 athymic (nu/nu) female mice, 8 to 10 weeks of age were used for s.c. bilateral implantation of tumour fragments 2 mm diameter.
Treatment: E.O. 9 was dissolved in saline at a concentration of 0.5 mg/ml prior to administration. Drug doses and schedules were derived from studies in experimental murine tumour systems and from orientation studies in non-tumour-bearing nude mice. Treatment was started i.v. when tumours measured 50-150 mm^3. After randomization a group of 6-7 tumour-bearing mice was treated and a group of 5-6 tumour-bearing mice served as control.
Evaluation of efficacy: Tumours were measured twice weekly in three dimensions. Efficacy was expressed as the mean of relative tumour volume in treated animals vs. that in control animals×100 (% T/C). The optimal value was calculated within 35 days after the last injection. Toxic death (dead mice within two weeks after the last injection) were excluded from the evaluation.
MRI-H-207: An undifferentiated adenocarcinoma kindly provided by Dr. A. E. Bogden, Worcester, Mass, with a doubling time of 3-5 days.

L1210 [8] = settings: 3-6 mg/kg; Remers et al., J. Med. Chem. 26 16 (1983); cited from earlier work
[9] = system: supercoiled covalently closed circular (CCC) DNA; settings: reducing agent, presence of oxygen; cited from earlier work
[10] = system: breast, pancreatic and prostatic adenocarcinomas, colon, bladder, lung and gastro-intestinal cancer; settings: cited from earlier work

Question: With `COC1=C(C)C(=O)c2c(c(COC(N)=O)c3n2CCC3)C1=O` [7-methoxymitosene] as the compound, how does the “antibacterial activity” value [1] read?
Answer: important antibacterial activity in vitro and in mice

Question: For `COC(=O)/C=C/c1c(C(=O)OC)c2c(n1C)C(=O)C=C(N1CC1)C2=O` [E.O. 22, Methyl 5-aziridino-3-methoxycarbonyl-1-methyl-2-[1H-indole-4,7-dione]acrylate], which “in vitro activity score, T 24” value ([2]; 0.01 μg/ml) is on record?
Answer: -

Question: And the “in vitro activity score, T 24” value ([2]; 0.1 μg/ml)?
Answer: -

Question: What about the “in vitro activity score, T 24” value ([2]; 1.0 μg/ml) of the same compound?
Answer: +

Question: What about the “in vitro activity score, WiDr” value (WiDr cells; colon tumour; 0.01 μg/ml) of the same compound?
Answer: -

Question: What about the “in vitro activity score, WiDr” value (WiDr cells; colon tumour; 0.1 μg/ml) of the same compound?
Answer: -

Question: What about the IC50 (L1210 cells; read-out: ID-50 L1210, Table IA, para-indoloquinone diesters) of the same compound?
Answer: 0.01 µg/mL (≈ 0.029 µM)

Question: And the “in vitro activity score, IgR-37” value (IgR37 cells melanoma; 0.01 μg/ml)?
Answer: -

Question: What about the “in vitro activity score, IgR-37” value (IgR37 cells melanoma; 0.1 μg/ml) of the same compound?
Answer: -

Question: And the “in vitro activity score, IgR-37” value (IgR37 cells melanoma; 1.0 μg/ml)?
Answer: +

Question: What about the “in vitro activity score, MCF-7” value (MCF7 breast cancer cells; 0.01 μg/ml) of the same compound?
Answer: -

Question: And the “in vitro activity score, MCF-7” value (MCF7 breast cancer cells; 0.1 μg/ml)?
Answer: -

Question: And the “cytotoxic activities” value [3]?
Answer: high cytotoxic activities

Question: And the “E1/2, halve wave reduction potential” value [4]?
Answer: -179 mV

Question: And the “in vitro activity score, A 204” value ([5]; 0.01 μg/ml)?
Answer: -

Question: What about the “in vitro activity score, A 204” value ([5]; 0.1 μg/ml) of the same compound?
Answer: -

Question: And the “in vitro activity score, A 204” value ([5]; 1.0 μg/ml)?
Answer: +

Question: And the IC50 ([6]; read-out: ID-50 R-1, Table IA, para-indoloquinone diesters)?
Answer: 0.5 µg/mL (≈ 1.45 µM)

Question: What does the source list for `CO[C@@]12[C@H](COC(N)=O)C3=C(C(=O)C(C)=C(N)C3=O)N1C[C@@H]1N[C@@H]12` [MMC, mitomycin C, reference compound]?
Answer: DNA crosslinks (DNA): caused rapid DNA instrand crosslinks in a dose dependent fashion; response vs control in vivo at 4 mg/kg (L1210 [7]; 4 mg/kg IP single dose): 200%; response vs control in vivo at 5 mg/kg (L1210 [7]; 5 mg/kg IP single dose): 175%; response vs control in vivo at 6 mg/kg (L1210 [7]; 6 mg/kg IP single dose): 175%; in vitro activity score, T 24 ([2]; 0.01 μg/ml): -; in vitro activity score, T 24 ([2]; 10 μg/ml): +; in vitro activity score, WiDr (WiDr cells; colon tumour; 0.01 μg/ml): -; in vitro activity score, WiDr (WiDr cells; colon tumour; 0.1 μg/ml): -; in vitro activity score, WiDr (WiDr cells; colon tumour; 10 μg/ml): +; toxic deaths (Ovarian (MRI-H-207) line): 1/7; IC50 (L1210 cells; Table VIII, read-out: ID-50 L1210): 0.05 µg/mL (≈ 0.15 µM); in vitro activity score, IgR-37 (IgR37 cells melanoma; 0.01 μg/ml): -; in vitro activity score, IgR-37 (IgR37 cells melanoma; 1.0 μg/ml): +; in vitro activity score, IgR-37 (IgR37 cells melanoma; 10 μg/ml): +; in vitro activity score, MCF-7 (MCF7 breast cancer cells; 0.01 μg/ml): -; in vitro activity score, MCF-7 (MCF7 breast cancer cells; 0.1 μg/ml): -; in vitro activity score, MCF-7 (MCF7 breast cancer cells; 10 μg/ml): +; max. effect (% T/C) (L1210 [8]): 124-153%; DNA strand breaks [9]: produced single strand breaks; in vitro activity score, A 204 ([5]; 0.01 μg/ml): -; in vitro activity score, A 204 ([5]; 1.0 μg/ml): +; in vitro activity score, A 204 ([5]; 10 μg/ml): +; IC50 ([6]; Table VIII, read-out: ID-50 R-1): 0.03 µg/mL (≈ 0.0897 µM); antitumour activity [10]: active against breast, pancreatic and prostatic adenocarcinomas, and notably against colon, bladder, lung and gastro-intestinal cancer
